SMILES strings stand for the structures. Bounds are passed on as bounds.

For series [1], the system named is Coxsackievirus B3. As to the kind of experiment: Antiviral activity against Coxsackievirus B3 infected in african green monkey […] assessed as inhibition of virus-induced cytopathic effect after 3 days by MTS assay. The series is classed as functional, organism-based. The note with it: for EC50: Enterovirus B, 72 h.
The nature of series [2]: Cytotoxicity against african green monkey Vero cells after 3 days by MTS assay. As to conditions: chlorocebus sabaeus. Type of series: cell-based.

For the molecule `OCC1CC2CC1C(n1cnc3c(Cl)ncnc31)C2` (stereo not drawn), the EC50 in series [1] worked out at 0.98 µM. In series [2], this molecule returned a CC50 at 72 h above 50 µM.

On to `OCC1C2COC3C2OC1C3n1cnc2c(Cl)ncnc21` (stereo not drawn), for which the EC50 in series [1] is 1.86 µM. Also, the CC50 at 72 h in series [2] is above 50 µM.

Turning to `C[C@@H](NC(=O)c1cccc(-c2cnc(-c3cc4ccccc4cn3)[nH]2)c1)c1ccc(F)cc1`, the EC50 in series [1] was 1.2 µM. Further, the half-maximal cytotoxic concentration (CC50) at 72 h in series [2] was above 50 µM.

Turning to `ClCC1C2COC3C2CC1C3n1cnc2c(Cl)ncnc21` (stereo not drawn), the EC50 in series [1] was determined as 1 µM. Also, in series [2], the CC50 at 72 h is above 50 µM.

On to `ClCC1C2COC3C2OC1C3n1cnc2c(Cl)ncnc21` (stereo not drawn), for which the EC50 in series [1] is 0.88 µM. In series [2], this molecule came in with a CC50 at 72 h above 50 µM.

In the case of `OCC1C2COC3C2CC1C3n1cnc2c(Cl)ncnc21` (stereo not drawn), the EC50 in series [1] worked out at 1.13 µM. Further, the cytotoxic concentration (CC50) at 72 h in series [2] was above 50 µM.

In the case of `OCC1CC2CC1CC2n1cnc2c(Cl)ncnc21` (stereo not drawn), the EC50 in series [1] was found to be 0.91 µM. Also, the 50% cytotoxic concentration (CC50) at 72 h in series [2] is above 50 µM.

With `Clc1ncnc2c1ncn2[C@@H]1CC2CC1[C@@H](n1cnc3c(Cl)ncnc31)C2`, in series [1], the EC50 is 7.83 µM. The half-maximal cytotoxic concentration (CC50) at 72 h in series [2] was above 50 µM.

As for `Clc1ncnc2c1ncn2C[C@@H]1C[C@H]2CC[C@@H]1C2` (relative stereo), in series [1], the EC90 stood at 9.43 µM and the EC50 came out at 3.83 µM. In addition, in series [2], the CC50 at 72 h was above 50 µM.

As to `Clc1ncnc2c1ncn2[C@@H]1C[C@@H]2C[C@H]1[C@@H]1O[C@@H]21` (relative stereo), in series [1], the concentration for an effect of 90% (EC90) is 3.46 µM and the concentration giving a half-maximal response (EC50) turned out to be 1.03 µM. In series [2], this molecule yielded a CC50 at 72 h above 50 µM.

In the case of `O[C@H]1C[C@H]2C[C@@H]1C[C@@H]2n1cnc2c(Cl)ncnc21` (relative stereo), the 50% effective concentration (EC50) in series [1] worked out at 2.44 µM. Further, the half-maximal cytotoxic concentration (CC50) at 72 h in series [2] was above 50 µM.

With `Clc1ncnc2c1ncn2[C@H]1C[C@H]2C[C@@H]1C[C@@H]2n1cnc2c(Cl)ncnc21` (relative stereo), the EC50 in series [1] worked out at 22.5 µM. In series [2], the 50% cytotoxic concentration (CC50) at 72 h is above 50 µM.

With `Clc1ncnc2c1ncn2[C@H]1C[C@H]2C[C@@H]1c1ccccc12` (relative stereo), in series [1], the EC90 is above 50 µM and the concentration giving a half-maximal response (EC50) amounted to 0.66 µM. Besides, the CC50 at 72 h in series [2] is above 50 µM.

With `Clc1ncnc2c1ncn2[C@H]1C[C@H]2C[C@@H]1c1cc3ccccc3cc12` (relative stereo), in series [1], the EC90 was above 50 µM and the 50% effective concentration (EC50) is above 50 µM. In series [2], the CC50 at 72 h was above 50 µM.

For `Clc1ncnc2c1ncn2[C@H]1C2C3C[C@H]1C[C@H]32` (relative stereo), the EC50 in series [1] stood at 1.52 µM. Moreover, in series [2], the half-maximal cytotoxic concentration (CC50) at 72 h is 43.9 µM.

In the case of `Clc1ncnc2c1ncn2[C@H]1C[C@H]2C[C@@H]1C[C@@H]2c1ccccc1` (relative stereo), in series [1], the 50% effective concentration (EC50) was determined as 5.72 µM. Further, the midpoint of cytotoxicity in series [2], the CC50 at 72 h, lay at 17 µM.

For the molecule `Clc1ncnc2c1ncn2C[C@H]1C[C@@H]2C=C[C@H]1C2` (relative stereo), in series [1], the EC90 came out at 8.49 µM and the EC50 is 3.58 µM. Besides, the cytotoxic concentration (CC50) at 72 h in series [2] is above 50 µM.

Turning to `CC1(C)[C@@H]2CC[C@@]1(C)[C@H](n1cnc3c(Cl)ncnc31)C2` (relative stereo), in series [1], the EC90 came to 36.26 µM and the EC50 worked out at 3.47 µM. In series [2], this molecule yielded a half-maximal cytotoxic concentration (CC50) at 72 h above 50 µM.

Turning to `CC1(C)[C@H]2CC[C@H](C2)[C@@H]1n1cnc2c(Cl)ncnc21` (relative stereo), in series [1], the EC90 is above 50 µM and the EC50 stood at 10.9 µM. In addition, the half-maximal cytotoxic concentration (CC50) at 72 h in series [2] is above 50 µM.

In the case of `Clc1ncnc2c1ncn2[C@H]1C[C@@H]2C=C[C@H]1C2` (relative stereo), in series [1], the concentration for an effect of 90% (EC90) worked out at 5.87 µM and the 50% effective concentration (EC50) came to 2.43 µM. Further, in series [2], the cytotoxic concentration (CC50) at 72 h was above 50 µM.

With `F[C@H]1C[C@H]2C[C@@H]1C[C@@H]2n1cnc2c(Cl)ncnc21` (relative stereo), in series [1], the EC90 was 1.96 µM and the EC50 stood at 0.95 µM. Further, the half-maximal cytotoxic concentration (CC50) at 72 h in series [2] is above 50 µM.

As for `O=C1C[C@@H]2C[C@H]1[C@H](n1cnc3c(Cl)ncnc31)C2` (relative stereo), in series [1], the EC50 turned out to be 1.57 µM. This molecule showed a CC50 at 72 h in series [2] above 50 µM.

On to `O[C@@H]1C[C@H]2C[C@@H]1[C@H](n1cnc3c(Cl)ncnc31)C2` (relative stereo), for which, in series [1], the EC50 came out at 1.3 µM. Besides, the half-maximal cytotoxic concentration (CC50) at 72 h in series [2] is above 50 µM.

`FC1(F)C[C@@H]2C[C@@H](n3cnc4c(Cl)ncnc43)[C@H]1C2` (relative stereo): in series [1], the EC90 is 34.4 µM and the 50% effective concentration (EC50) was found to be 1.16 µM. Also, the CC50 at 72 h in series [2] was above 50 µM.

On to `Clc1ncnc2c1ncn2[C@H]1[C@@H]2C[C@@H]3CO[C@H]1[C@H]3C2` (relative stereo), for which, in series [1], the EC50 turned out to be 1.27 µM. Moreover, in series [2], the 50% cytotoxic concentration (CC50) at 72 h was above 50 µM.

Take `O[C@@H]1[C@@H]2C[C@H]([C@@H]1O)[C@@H](n1cnc3c(Cl)ncnc31)C2` (relative stereo): in series [1], the concentration for an effect of 90% (EC90) was determined as 36.52 µM and the 50% effective concentration (EC50) was determined as 2.26 µM. The same molecule gave a CC50 at 72 h in series [2] above 50 µM.

For `O[C@@H]1C[C@H]2C[C@@H]1[C@@H](n1cnc3c(Cl)ncnc31)C2` (relative stereo), in series [1], the EC50 is 1.1 µM. Further, the CC50 at 72 h in series [2] was found to be 47.9 µM.

As to `Clc1ncnc2c1ncn2[C@H]1C[C@H]2C[C@@H]1[C@H](c1ccccc1)C2` (relative stereo), in series [1], the half-maximal effective concentration (EC50) was 2.98 µM. In series [2], this molecule had a CC50 at 72 h of 13.4 µM.

`Clc1ncnc2c1ncn2[C@H]1C[C@H]2C[C@@H]1[C@@H]1CCC[C@H]21` (relative stereo): the EC50 in series [1] came out at 1.9 µM. Moreover, in series [2], the midpoint of cytotoxicity, the CC50 at 72 h, lay at 43.4 µM.

Turning to `Clc1ncnc2c1ncn2[C@@H]1[C@@H]2C[C@@H]3[C@H]1CO[C@@H]3C2` (relative stereo), the EC50 in series [1] is 1 µM. The 50% cytotoxic concentration (CC50) at 72 h in series [2] was above 50 µM.

For the molecule `O=C1C[C@H]2C[C@@H]1C[C@@H]2n1cnc2c(Cl)ncnc21` (relative stereo), in series [1], the EC90 stood at 1.78 µM and the EC50 was 0.9 µM. In series [2], the CC50 at 72 h was above 50 µM.

As for `O[C@H]1C[C@@H]2C[C@@H]1C[C@H]2n1cnc2c(Cl)ncnc21` (relative stereo), in series [1], the EC50 stood at 1.05 µM. Also, the half-maximal cytotoxic concentration (CC50) at 72 h in series [2] is above 50 µM.

Regarding `FC1(F)C[C@H]2C[C@H]1C[C@@H]2n1cnc2c(Cl)ncnc21` (relative stereo), in series [1], the concentration giving a half-maximal response (EC50) came out at 1 µM. This molecule also showed a CC50 at 72 h in series [2] above 50 µM.

The record behind these values is ChEMBL document CHEMBL1166016, “Design, synthesis, and biological evaluation of novel coxsackievirus B3 inhibitors” (Bioorg Med Chem, 2010).
